Laboratory results published in US8026070B2 (priority 2005, dated 2011).
Values joined by “and” are separate entries in the source; they are usually repeats but may differ in a detail not shown here. Equal entries are not always repeated. Where two headings read alike, the source gives them in different places.

Test system: human recombinant PrP spiked into human plasma

In the case of `NCCCCCC(=O)O` [ACA, 6-aminohexanoic acid], the “Effect on detection of spiked human recombinant prion protein in human plasma” value is reported as “enhanced the detection”, the “Non-specific binding, optical density at 450 nm” value is reported as 0.4665 and 0.4128 and 0.4549 and the “Only Plasma, optical density at 450 nm” value is reported as 0.4036 and 0.4098 and 0.3737. The “Plasma with human recombinant PrP, optical density at 450 nm” value was 0.52 and 0.5723 and 0.6507 and the “Ratio of Signals (ratio of signals from spiked plasma and only plasma samples)” value was 1.3 and 1.4 and 1.7.
`NC[C@H]1CC[C@H](C(=O)O)CC1` [AMCHA, trans-(aminomethyl)cyclohexanecarboxylic acid] was tested, and the “Ratio of Signals (ratio of signals from spiked plasma and only plasma samples)” value was 1.7 and 1.6 and 1.8 and the “Effect on detection of spiked human recombinant prion protein in human plasma” value (all concentrations (1, 10, 100 mM) in the sample preparation buffer) was “enhanced the detection”.
